The test system of one assay is Bim. In words: Bim protein in ARPE-19 cells under oxidative stress. It is filed as cell-based, human. The following applies: ARPE-19 cells under stress. The source says: FIG. 7. (A) VLC-PUFA and ELV1 and ELV2 compounds mediated downregulation of Bim in ARPE-19 cells under stress. Bim, another class of Bcl2 family, has been tested like Bid in this figure to confirm our previous results. VLC-PUFA and elovanoids protected against the upregulation of Bim by OS, similar to Bid, in RPE cells under stress. (B) VLC-PUFA and elovanoids mediated effect on Bim downregulation in ARPE-19 cells under stress.
FIG. 7—A) VLC-PUFA and ELV1 and ELV2 compounds mediated […] of Bim in ARPE-19 cells under stress. Bim, another class of Bcl2 family, has been tested like Bid in this figure to confirm our previous results. VLC-PUFA and elovanoids protected the upregulation of Bim by OS, similar to Bid, in RPE cells under stress. (B) VLC-PUFA and elovanoids mediated effect on Bim upregulation in ARPE-19 cells under stress.

Assay [1] relates to human retinal pigment epithelial (RPE) cells deficient in 15-LOX-D1. In words: Oxidative stress (OS) induced apoptosis / cell death in 15-LOX-1-deficient human RPE cells. It is filed as cell-based.
From the text: (§1) FIG. 4. (A) Cytoprotective effects of NPD1 like compounds on OS induced apoptosis. The results shown in this figure compare the cytoprotective capacities of long chain polyunsaturated fatty acids (VLC-PUFA), elovanoids ELV1 and ELV2, and neuroprotectin D1 (NPD1) in human retinal pigment epithelial (RPE) cells deficient in 15-LOX-D1 by measuring the protection of cell deaths induced by oxidative stress (OS) by these compounds. […] (B) Elovanoid precursors protect human retinal pigment epithelial cells deficient in 15-LOX-1, unlike DHA, from oxidative stress conditions.
(§2) FIG. 5. (A) Effect of PD146176 on VLC-PUFA-inhibited apoptosis induced by OS in ARPE-19 cells. […] It is evident that 32:6 and 34:6 LCAF were able to induce a substantial amount (55 and 48% respectively) of neuroprotection compared to PD 146176 (22%) when the stressed cells were treated with 5 μm of 15-LOX-D1 inhibitor. It can be concluded that since PD146176 is the inhibitor of 15-lipooxygenase enzyme, it might be protecting the stressed RPE cells by accumulating neuroprotective agents inside the cells. (B) Comparison of cytoprotective capacities of NPD1, C32:6 and C34:6 VLC-PUFA on oxidative stress-induced apoptosis in 15-LOX-1 cells. Shown here is the comparison of neuroprotection in a 15-LOX-1-deficient cell line under oxidative stress with 32:6 and 34:6 VLC-PUFA along with NPD1. 32:6 and 34:6 LCAF were able to induce neuroprotection (45% and 40% respectively), as compared to oxidative stress (90%) under this condition. (C) Concentration dependent cytoprotection by C32:6 and C34:6 VLC-PUFA in oxidative-stress induced ARPE-19 cells. A concentration (50-500 nM) kinetic of cytoprotection induced by LCAF 32:6 and 34:6 in RPE cell culture under OS was shown here. […] We decided to use 250 nM concentrations of 32:6 and 34:6 LCAF in subsequent experiments. (D) Selected images of alive and dead cells from this study (control, OS, treatment with C32:6).
as §1, with “Evidence of cytoprotection by 32.6 and 34.6 VLC-PUFA in oxidative-stress induced ARPE-19 cells as detailed in (FIG. 4): (A) Cytoprotective” for “FIG. 4. (A) Cytoprotective”, “capacities of very long chain” for “capacities of long chain”
FIG. 5—(A) Effect of PD146176 on VLC-PUFA inhibited apoptosis induced by OS in ARPE-19 cells. […] It is evident that 32:6 and 34:6 LCAF were able to induce a substantial amount (55 and 48% respectively) of neuroprotection compared to PD 146176 (22%) when the stressed cells were treated with 5 μm of 15-LOX-D1 inhibitor. It can be concluded that since PD146176 is the inhibitor of 15-lipooxygenase enzyme, it might be protecting the stressed RPE cells by accumulating neuroprotective agents inside the cells. (B) Comparison of cytoprotective capacities of NPD1, C32:6 and C34:6 VLC-PUFA on oxidative stress-induced apoptosis in 15-LOX-1 cells. Shown here is the comparison of neuroprotection in a 15-LOX-1-deficient cell line under oxidative stress with 32:6 and 34:6 VLC-PUFA along with NPD1. 32:6 and 34:6 VLC-PUFA were able to induce neuroprotection (45% and 40% respectively), as compared to oxidative stress (90%) under this condition. (C) Concentration dependent cytoprotection by C32:6 and C34:6 VLC-PUFA in oxidative-stress induced ARPE-19 cells. A concentration (50-500 nM) kinetic of cytoprotection induced by VLC-PUFA 32:6 and 34:6 in RPE cell culture under OS was shown here. […] We decided to use 250 nM concentrations of 32:6 and 34:6 VLC-PUFA in subsequent experiments. […]

The next assay concerns Bid. Nature of the assay: Bid protein by western blot in ARPE-19 cells under oxidative stress. The format is cell-based, human. The source says: FIG. 6. (A) VLC-PUFA and elovanoids ELV1 and ELV2 mediated effect on Bid upregulation in ARPE-19 cells under stress. […] (B) VLC-PUFA and ELV1 and ELV2 compounds mediated upregulation of Bid in ARPE-19 cells under stress.
FIG. 6—(A) VLC-PUFA and elovanoids ELV1 and ELV2 mediated effect on Bid upregulation in ARPE-19 cells under stress. […] (B) VLC-PUFA and ELV1 and ELV2 compounds mediated upregulation of Bid in ARPE-19 cells under stress.
A general note: In western blotting, separated proteins are transferred to a membrane and probed.

A further assay has as its system Bcl-xL. Nature of the assay: Bcl-xL protein in ARPE-19 cells under oxidative stress. The settings on record: ARPE-19 cells under OS. It is filed as cell-based, human. Here is the method: (§3) FIG. 8. (A) Bcl-xL-upregulation by elovanoids ELV1 and ELV2 in ARPE-19 cells under stress. Bcl-xL is the antiapoptotic Bcl2 family protein. Like proapoptotic proteins Bid and Bim, the effect of elovaniod precursors on the antiapoptotic protein Bcl-xL was tested in this figure in RPE cells under OS. […] (B) Effect of NPD1, ELV1 and ELV2 on Bax expression in LOX-D cells under stress. Proapoptotic Bax was tested in this figure. […] C) VLC-PUFA and elovanoids ELV1 and ELV2 mediated effect on Bax upregulation in ARPE-19 cells under stress. In this experiment, elovanoid precursors along with VLC-PUFA were tested on the downregulation of the Bax protein in RPE cells under stress.
as §3, with “8—(A)” for “8. (A)”

Another assay concerns Bcl2. Nature of the assay: Bcl2 protein in RPE (LOX-D / ARPE-19) cells under oxidative stress. It is filed as cell-based, human. The source says: FIG. 9. (A) VLC-PUFA and elovanoids ELV1 and ELV2 mediated effect on Bcl2 upregulation in ARPE-19 cells under stress. In this experiment we tested the effect of elovanoid precursors on Bcl2 upregulation along with VLC-PUFA in stressed RPE. (B) Quantification of Bcl2 upregulation by NPD1, ELV1 and ELV2 in LOX-D cells. Bcl2 is an important antiapoptotic protein of the Bcl2 family protein.
FIG. 9—(A) VLC-PUFA and elovanoids ELV1 and ELV2 mediated effect on Bcl2 upregulation in ARPE-19 cells under stress. In this experiment we tested the effect of elovaniod precursors on Blc2 upregulation along with VLC-PUFA in stressed RPE. (B) Quantification of Bcl2 upregulation by NPD1, ELV1 and ELV2 in LOX-D cells. Bcl2 is an important antiapoptotic protein of the Bcl2 family protein.

A further assay concerns Bax. Nature of the assay: Bax expression in LOX-D RPE cells under oxidative stress. The format is cell-based, human. As to the method:
as §3
as §3, with “8—(A)” for “8. (A)”

In the next assay the test system is SIRT1. Nature of the assay: SIRT1 abundance in ARPE-19 cells under oxidative stress. The format is cell-based. The following applies: ARPE-19 / human RPE cells confronted with OS. The text has this: FIG. 10. (A) Effect of NPD1 and VLC-PUFA C32:6 and C34:6 in mediating upregulation of SIRT1 in ARPE-19 cells. (B) Quantification of SIRT1 upregulation by NPD1, C32:6 and C34:6. SIRT1 (Sirtuin1) belongs to a family of highly conserved proteins linked to caloric restriction beneficial outcomes and aging by regulating energy metabolism, genomic stability and stress resistance. SIRT1 is a potential therapeutic target in several diseases including cancer, diabetes, inflammatory disorders, and neurodegenerative diseases or disorders. Elovanoids induce cell survival involving the upregulation of the Bcl2 class of survival proteins and the downregulation of pro-apoptotic Bad and Bax under oxidative stress (OS) in RPE cells. […] As a consequence, remarkable cell survival takes place. This target of elovanoids might be relevant to counteract consequences of several diseases associated with SIRT1.
FIG. 10—(A) Effect of NPD1 and VLC-PUFA C32:6 and C34:6 in mediating upregulation of SIRT1 in ARPE-19 cells. (B) Quantification of SIRT1 upregulation by NPD1, C32:6 and C34:6. SIRT1 (Sirtuin1) belongs to a family of highly conserved proteins linked to caloric restriction beneficial outcomes and aging by regulating energy metabolism, genomic stability and stress resistance. […]

Another assay concerns ARPE-19 cells. In words: Oxidative stress induced apoptosis / cell death in ARPE-19 cells. The format is cell-based, human. The settings on record: for concentration dependent cytoprotection (FIG. 5C): ARPE-19 under OS. Here is the method: as §2
FIG. 5—(A) Effect of PD146176 on VLC-PUFA inhibited apoptosis induced by OS in ARPE-19 cells. […] It is evident that 32:6 and 34:6 LCAF were able to induce a substantial amount (55 and 48% respectively) of neuroprotection compared to PD 146176 (22%) when the stressed cells were treated with 5 μm of 15-LOX-D1 inhibitor. It can be concluded that since PD146176 is the inhibitor of 15-lipooxygenase enzyme, it might be protecting the stressed RPE cells by accumulating neuroprotective agents inside the cells. (B) Comparison of cytoprotective capacities of NPD1, C32:6 and C34:6 VLC-PUFA on oxidative stress-induced apoptosis in 15-LOX-1 cells. Shown here is the comparison of neuroprotection in a 15-LOX-1-deficient cell line under oxidative stress with 32:6 and 34:6 VLC-PUFA along with NPD1. 32:6 and 34:6 VLC-PUFA were able to induce neuroprotection (45% and 40% respectively), as compared to oxidative stress (90%) under this condition. (C) Concentration dependent cytoprotection by C32:6 and C34:6 VLC-PUFA in oxidative-stress induced ARPE-19 cells. A concentration (50-500 nM) kinetic of cytoprotection induced by VLC-PUFA 32:6 and 34:6 in RPE cell culture under OS was shown here. […] We decided to use 250 nM concentrations of 32:6 and 34:6 VLC-PUFA in subsequent experiments. (D) Selected images of alive and dead cells from this study (control, OS, treatment with C32:6).

Structures are written as SMILES.

Turning to `CC/C=C\C[C@H](O)\C=C/C=C/C=C/[C@H](O)C/C=C\C/C=C\CCCCCCCCCCCCC(=O)O` [ELV1, (14Z,17Z,20R,21E,23E,25Z,27S,29Z)-20,27-dihydroxydotriaconta-14,17,21,23,25,29-hexaenoic acid], the “effect on Bim upregulation by OS (FIG. 7)” value with Bim is “potent downregulation”. For the same compound, the “activity against OS relative to the related VLC-PUFA (FIG. 4)” value in assay [1] (as sodium salts or methyl esters) is recorded as “more potent activity against OS than the related VLC-PUFA”. Besides, the “effect on Bid protein upregulated by OS (FIG. 6)” value in the assay on Bid was “potent downregulation”. Also, the “effect on antiapoptotic Bcl-xL protein (FIG. 8A)” value with Bcl-xL is recorded as “potent upregulation”. Also, the “effect on Bcl2 protein (FIG. 9)” value in the assay with Bcl2 is “potent upregulation”. The “effect on Bax upregulation by OS (FIG. 8B)” value with Bax is reported as “potent downregulation”.
Turning to `CC/C=C\C/C=C\C/C=C\C/C=C\C/C=C\C/C=C\CCCCCCCCCCCCC(=O)O` [C32:6], the “neuroprotection (FIG. 5B)” value in assay [1] (15-LOX-1-deficient cell line under oxidative stress, compared to oxidative stress (90%)) turned out to be 45%. The “protection against cell death under oxidative stress conditions (FIG. 4B)” value in assay [1] (15-LOX-D1 cells under oxidative stress) is listed as “protect against cell death”. Also, in the assay on SIRT1, the “effect on SIRT1 abundance (FIG. 10)” value is given as “mediate the upregulation of SIRT1”. For the same compound, the entries for the “concentration dependent cytoprotection (FIG. 5C)” value with ARPE-19 cells (250 nM), in the assay with ARPE-19 cells (500 nM) and with ARPE-19 cells (starting from 50 nM) were “very good intermediate effect”, “maximum effect” and “gradual decrease of cell deaths”, respectively. For the same compound, in the assay on ARPE-19 cells (RPE cells), the “protection against OS in RPE cells (summary, FIGS. 4-10)” value is recorded as “protective against OS”. The “neuroprotection (FIG. 5A)” value in the assay on ARPE-19 cells (stressed ARPE-19 cells treated with 5 μm of 15-LOX-D1 inhibitor PD146176) amounted to 55%.

Source of the values: patent US12565467B2, “Compounds, compositions, and methods for the treatment of inflammatory, degenerative, and neurodegenerative diseases” (Board of Supervisors of Louisiana State University and …, priority 2015, dated 2026).
